Test results: ChEMBL document CHEMBL5036361, “Structurally Diverse Sesquiterpenoid Glycoside Esters from Pittosporum qinlingense with Anti-neuroinflammatory Activity” (J Nat Prod, 2022)
The source made the active and inactive calls. No cut-off for these calls is given here.

Key:
BV-2 [1] = assay: Antineuroinflammatory activity against mouse BV-2 cells assessed as inhibition of LPS-induced NO production incubated for 24 hrs by Griess assay; format: functional, cell-based; conditions: BV-2, 24 h
BV-2 [2] = assay: Cytotoxicity against mouse BV-2 cells at 6.25 to 100 uM after 24 hrs by MTT assay; format: cell-based; conditions: bv-2, 24 h, dose 6.25-100 µM
BV-2 [3] = assay: Downregulation of LPS-induced iNOS expression in mouse BV-2 cells at 1.25 to 10 uM preincubated for 1 hr followed by LPS stimulation for 24 hrs by western blot analysis; format: functional, cell-based; conditions: dose 1.25-10 µM
BV-2 [4] = assay: Downregulation of LPS-induced COX-2 expression in mouse BV-2 cells at 1.25 to 10 uM preincubated for 1 hr followed by LPS stimulation for 24 hrs by western blot analysis; format: functional, cell-based; conditions: dose 1.25-10 µM

Structure (SMILES) | IC50 (BV-2 [1]) [µM] | Activity (BV-2 [2]) | Activity (BV-2 [3]) | Activity (BV-2 [4])
O=c1c(O)c(-c2ccc(O)c(O)c2)oc2cc(O)cc(O)c12 [QUERCETIN] | 2.45 |  |  | 
C/C=C(\C)C(=O)O[C@H]1[C@@H](O)[C@@H](C)O[C@@H](O[C@H]2C[C@@](C)(O)[C@H]3CC[C@](C)(O)[C@H]3[C@H]3[C@@H]2C3(C)C)[C@@H]1OC(C)=O | > 50 | Non-Toxic |  | 
C[C@@H]1CC[C@H]2[C@@H]1[C@H]1[C@@H](CC[C@@]2(C)O)C1(C)C | > 50 | Non-Toxic |  | 
C=C1C[C@@H](O[C@@H]2O[C@H](C)[C@H](O)[C@H](OC(=O)/C(C)=C/C)[C@H]2OC(C)=O)[C@@H](C(C)C)[C@@H]2C=C(C)CC[C@@H]12 | > 50 | Non-Toxic |  | 
C=C1C[C@H](O[C@@H]2O[C@H](C)[C@H](O)[C@H](OC(=O)/C(C)=C/C)[C@H]2OC(C)=O)[C@H]2[C@@H]([C@H]3[C@@H]1CC[C@]3(C)O)C2(C)C | > 50 | Non-Toxic |  | 
CC(=O)O[C@H]1[C@H](O[C@]2(C)CC[C@@H]3[C@H]([C@@H]4[C@H](C)CC[C@@H]42)C3(C)C)O[C@H](CO)[C@@H](O)[C@@H]1O | > 50 | Non-Toxic |  | 
C=C1CC[C@@H](O)[C@]2(C)CC[C@@H](C(C)(C)O[C@@H]3O[C@H](C)[C@H](O)[C@H](OC(=O)/C(C)=C/C)[C@H]3OC(C)=O)[C@H](OC)[C@@H]12 | > 50 | Non-Toxic |  | 
C=C1C[C@H](O[C@@H]2O[C@H](C)[C@H](O)[C@H](O)[C@H]2OC(C)=O)[C@H]2[C@@H]([C@H]3[C@@H]1CC[C@]3(C)O)C2(C)C | > 50 | Non-Toxic |  | 
CC(C)[C@@H]1CC[C@@]2(C)[C@H](O)CC[C@](C)(O)[C@@H]2[C@H]1O | > 50 | Non-Toxic |  | 
CC1(C)[C@H]2[C@H]3[C@@H](CC[C@@]3(C)O)[C@](C)(O)CC[C@H]21 | > 50 | Non-Toxic |  | 

Continued, in another order:

IC50 (BV-2 [1]) [µM] | Structure (SMILES) | Activity (BV-2 [2]) | Activity (BV-2 [3]) | Activity (BV-2 [4])
17.6 | CC(=O)O[C@H]1[C@H](O[C@]2(C)CC[C@@H]3[C@H]([C@@H]4[C@H](C)CC[C@@H]42)C3(C)C)O[C@H](C)[C@H](O)[C@@H]1OC(=O)/C=C(/C)CO | Non-Toxic |  | 
> 50 | C[C@@H]1CC[C@H]2[C@@H]1[C@H]1[C@@H](CC[C@@]2(C)O[C@@H]2O[C@H](C)[C@H](O)[C@H](O)[C@H]2O)C1(C)C | Non-Toxic |  | 
> 50 | CCC(C)C(=O)O[C@H]1[C@@H](O)[C@@H](C)O[C@@H](O[C@]2(C)CC[C@@H]3[C@H]([C@@H]4[C@H](C)CC[C@@H]42)C3(C)C)[C@@H]1OC(C)=O (some centres not stated) | Non-Toxic |  | 
6.27 | C/C=C(/C)C(=O)O[C@H]1[C@H](O)[C@@H](CO)O[C@@H](O[C@]2(C)CC[C@@H]3[C@H]([C@@H]4[C@H](C)CC[C@@H]42)C3(C)C)[C@@H]1OC(C)=O | Non-Toxic | Active | Active
1.43 | C/C=C(/C)C(=O)O[C@H]1[C@@H](O)[C@@H](C)O[C@@H](O[C@]2(C)CC[C@@H]3[C@H]([C@@H]4[C@H](C)CC[C@@H]42)C3(C)C)[C@@H]1OC(C)=O | Non-Toxic |  | 
24.1 | C/C=C(/C)C(=O)O[C@@H]1[C@@H](OC(C)=O)[C@H](O[C@]2(C)CC[C@@H]3[C@H]([C@@H]4[C@H](C)CC[C@@H]42)C3(C)C)OC[C@H]1O | Non-Toxic |  | 
4.95 | CC(=O)O[C@H]1[C@H](O[C@@]2(C)CC[C@@H]3[C@H]([C@@H]4[C@H](C)CC[C@@H]42)C3(C)C)O[C@H](C)[C@H](O)[C@@H]1OC(=O)C=C(C)C | Non-Toxic | Active | Active
0.97 | C/C=C(/C)C(=O)O[C@H]1[C@@H](OC(C)=O)[C@@H](C)O[C@@H](O[C@]2(C)CC[C@@H]3[C@H]([C@@H]4[C@H](C)CC[C@@H]42)C3(C)C)[C@@H]1OC(C)=O | Non-Toxic | inactive | Active
0.95 | CC(=O)O[C@@H]1[C@H](OC(=O)C=C(C)C)[C@@H](OC(C)=O)[C@H](O[C@@]2(C)CC[C@@H]3[C@H]([C@@H]4[C@H](C)CC[C@@H]42)C3(C)C)O[C@@H]1C | Non-Toxic | Active | Active
21.5 | C/C=C(/C)C(=O)O[C@H]1[C@H](O)[C@@H](OC(C)=O)[C@H](O[C@]2(C)CC[C@@H]3[C@H]([C@@H]4[C@H](C)CC[C@@H]42)C3(C)C)O[C@@H]1CO | Non-Toxic |  | 
